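Cells were grown in 96-well plates and exposed to each compound for 48 hours at five concentrations; endpoints were interpolated linearly between bracketing concentrations, or set to the highest concentration if not reached. GI50: concentration for 50% inhibition of growth. TGI is the concentration that stops growth completely.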
How the values were obtained:
Assay in all cases: NCI anticancer screen, dose series, 48 h
NCI-H23 lung = test system: NCI-H23 lung
UACC-62 melanoma = test system: UACC-62 melanoma
SF-268 CNS = test system: SF-268 CNS
HS 578T breast = test system: HS 578T breast
NCI-H226 lung = test system: NCI-H226 lung
HCC-2998 colon = test system: HCC-2998 colon
TK-10 renal = test system: TK-10 renal
HT29 colon = test system: HT29 colon
EKVX NSCLC = test system: EKVX NSCLC
UACC-257 melanoma = test system: UACC-257 melanoma

Row | SMILES | GI50 (NCI-H23 lung) [µM] | TGI (NCI-H23 lung) [µM] | GI50 (UACC-62 melanoma) [µM] | TGI (UACC-62 melanoma) [µM] | GI50 (SF-268 CNS) [µM] | TGI (SF-268 CNS) [µM] | GI50 (HS 578T breast) [µM] | TGI (HS 578T breast) [µM] | GI50 (NCI-H226 lung) [µM] | TGI (NCI-H226 lung) [µM] | GI50 (HCC-2998 colon) [µM] | TGI (HCC-2998 colon) [µM] | GI50 (TK-10 renal) [µM] | TGI (TK-10 renal) [µM] | TGI (HT29 colon) [µM] | TGI (EKVX NSCLC) [µM] | TGI (UACC-257 melanoma) [µM] | GI50 (HT29 colon) [µM] | GI50 (EKVX NSCLC) [µM] | GI50 (UACC-257 melanoma) [µM]
1 | O=C(Nc1cc(Cl)cc(Cl)c1)c1cccc(NC2=C(Cl)C(=O)N(Cc3ccccc3)C2=O)c1 | 27.8 | > 100 | 29.2 | > 100 | 42.7 | > 100 | 32.7 | > 100 | 51.4 | > 100 | 37.1 | > 100 | 31.8 | > 100 | – | – | – | – | – | –
2 | COc1cc([C@@H]2c3cc4c(cc3[C@@H](OC(=O)c3cccc(N)c3)C3COC(=O)[C@@H]32)OCO4)cc(OC)c1O (some centres undefined) | – | 6.2 | – | 24.1 | – | > 61.1 | – | – | – | 6.09 | – | 28.7 | – | > 100 | 24.5 | > 100 | > 77.3 | – | – | –
3 | Cc1ccc(N=C2N=C(N3CC(C)OC(C)C3)c3ccccc32)cc1 (centres undefined) | – | 78.8 | – | > 100 | – | > 100 | – | – | – | > 100 | – | 79.5 | – | > 100 | 65 | > 100 | 74.6 | – | – | –
4 | COc1ccc(S(=O)(=O)Nc2c(/C=C\c3cc(OC)c(OC)c(OC)c3)ccc(OC)c2O)cc1 | 0.052 | > 100 | 0.0389 | > 100 | 0.0838 | 91.6 | 0.047 | > 100 | 41.3 | > 100 | 0.0316 | 29.9 | 0.0732 | 59.1 | 10.8 | – | – | 1.4 | – | –
5 | CCCCNC(=S)OCCC(C)CCCC(C)C (centres undefined) | – | > 100 | – | > 100 | – | > 100 | – | – | – | – | – | > 100 | – | > 100 | > 100 | > 100 | > 100 | – | – | –
6 | CC(C)OC/N=C(/N)NC#N | – | > 100 | – | > 100 | – | > 100 | – | – | – | > 100 | – | > 100 | – | > 100 | > 100 | > 100 | > 100 | – | – | –
7 | CCCCCCCCCCCCCCCC(=O)OCCOCCOCCOCCOCCOC(=O)CCCCCCCCCCCCCCC | – | > 100 | – | > 100 | – | > 100 | – | – | – | > 100 | – | > 100 | – | > 100 | > 100 | > 100 | > 100 | – | – | –
8 | COc1cc2c(c(OC)c1OC)-c1ccc(SC)c(=O)cc1[C@@H](NC(=O)C(F)(F)F)CC2 | – | > 4.64 | – | > 100 | – | 63.9 | – | 71.1 | – | – | – | > 71.3 | – | > 100 | 0.182 | > 100 | > 4.64 | – | – | –
9 | CC1=C(C(=O)Nc2ccc(F)c(Cl)c2)C(c2cccc(Oc3ccccc3)c2)NC(=S)N1 (centres undefined) | 19.3 | 39.4 | 10 | 20.2 | 10.5 | 24.2 | 13.3 | 29.2 | – | – | 23.8 | > 50 | 16.3 | > 50 | – | 41.5 | 33.5 | – | 14.8 | 13.5

Source: PubChem BioAssay (NCI)
